{"source": "patent US10961539B2", "about": "“Promoter system inducing expression by 3-hydroxypropionic acid and method for biological production of 3-hydroxypropionic acid using same” (NOROO IC Co., Ltd., priority 2015, dated 2021)", "key": {"[1]": {"tested_on": "mmsadh", "assay": "RT-PCR relative mRNA level of 3-HP catabolic gene"}, "[2]": {"tested_on": "mmsadh", "assay_type": "cell-based, microorganisms shown in Table 1"}}, "note": "Several values for one entry are separate records, joined by “and”; a condition that tells them apart may be missing. Equal values may be shown once. Read-outs that look alike come from different tables or passages of the source.", "data": [{"smiles": "O=C(O)CCO", "note": "[3-HP, 3-hydroxypropionic acid]", "values": [{"measurement": "fold increase of mmsadh mRNA expression", "setting": "[1]; cells exposed to 25 mmol/L 3-HP vs no 3-HP, M9 medium, rpoD reference gene", "result": 137, "unit": "fold"}, {"measurement": "mmsadh expression on addition of 3-HP", "setting": "[1]; strain with C4 LysR gene removed", "result": "did not increase the expression"}, {"measurement": "Relative mRNA level mmsadh + 3-HP", "setting": "[2]", "result": "5.21 and 5.19"}, {"measurement": "Relative mRNA level mmsadh + 3-HP", "setting": "[2]; Achromobacter denitrificans, + 3-HP", "result": 6.34}, {"measurement": "Relative mRNA level mmsadh + 3-HP", "setting": "[2]; Acidovorax avenae subsp., + 3-HP", "result": 5.98}, {"measurement": "Relative mRNA level mmsadh + 3-HP", "setting": "[2]; Acidovorax sp., + 3-HP", "result": 6.04}, {"measurement": "Relative mRNA level mmsadh + 3-HP", "setting": "[2]; Acinetobacter baumannii, + 3-HP", "result": 5.76}, {"measurement": "Relative mRNA level mmsadh + 3-HP", "setting": "[2]; Aeromonas hydrophilia, + 3-HP", "result": 6.14}, {"measurement": "Relative mRNA level mmsadh + 3-HP", "setting": "[2]; Agrobacterium sp., + 3-HP", "result": 6.56}, {"measurement": "Relative mRNA level mmsadh + 3-HP", "setting": "[2]; Alcaligenes faecalis, + 3-HP", "result": 5.73}, {"measurement": "Relative mRNA level mmsadh + 3-HP", "setting": "[2]; Alcanivorax hongdengensis, + 3-HP", "result": 6.58}, {"measurement": "Relative mRNA level mmsadh + 3-HP", "setting": "[2]; Alicychphilus denitrificans, + 3-HP", "result": 6.01}, {"measurement": "Relative mRNA level mmsadh + 3-HP", "setting": "[2]; Alteromonas marina, + 3-HP", "result": 5.73}, {"measurement": "Relative mRNA level mmsadh + 3-HP", "setting": "[2]; Amycolatopsis sp., + 3-HP", "result": 6.05}, {"measurement": "Relative mRNA level mmsadh + 3-HP", "setting": "[2]; Anaeromyxobacter dehalogenans, + 3-HP", "result": 5.44}, {"measurement": "Relative mRNA level mmsadh + 3-HP", "setting": "[2]; Azospirillum brasilensse, + 3-HP", "result": 6.05}, {"measurement": "Relative mRNA level mmsadh + 3-HP", "setting": "[2]; Azotobacter vinelandii, + 3-HP", "result": 5.87}, {"measurement": "Relative mRNA level mmsadh + 3-HP", "setting": "[2]; Beijerinckia indica, + 3-HP", "result": 5.01}, {"measurement": "Relative mRNA level mmsadh + 3-HP", "setting": "[2]; Bordetella avium, + 3-HP", "result": 4.98}, {"measurement": "Relative mRNA level mmsadh + 3-HP", "setting": "[2]; Bradyrhizobium japonicum, + 3-HP", "result": 5.49}, {"measurement": "Relative mRNA level mmsadh + 3-HP", "setting": "[2]; Burkholderia ambifaria, + 3-HP", "result": 5.13}, {"measurement": "Relative mRNA level mmsadh + 3-HP", "setting": "[2]; Castellaniella defragrans, + 3-HP", "result": 5.98}, {"measurement": "Relative mRNA level mmsadh + 3-HP", "setting": "[2]; Catenulispora acidiphilia, + 3-HP", "result": 5.24}, {"measurement": "Relative mRNA level mmsadh + 3-HP", "setting": "[2]; Caulobacter sp., + 3-HP", "result": 5.96}, {"measurement": "Relative mRNA level mmsadh + 3-HP", "setting": "[2]; Chromobacterium violaceum, + 3-HP", "result": 6.31}, {"measurement": "Relative mRNA level mmsadh + 3-HP", "setting": "[2]; Collimonas arenae, + 3-HP", "result": 5.87}, {"measurement": "Relative mRNA level mmsadh + 3-HP", "setting": "[2]; Comamonas testosteroni, + 3-HP", "result": 4.96}, {"measurement": "Relative mRNA level mmsadh + 3-HP", "setting": "[2]; Corynebacterium vitaeruminis, + 3-HP", "result": 5.89}, {"measurement": "Relative mRNA level mmsadh + 3-HP", "setting": "[2]; Cupriavidus necator, + 3-HP", "result": 6.05}, {"measurement": "Relative mRNA level mmsadh + 3-HP", "setting": "[2]; Curvibacter gracilus, + 3-HP", "result": 3.99}, {"measurement": "Relative mRNA level mmsadh + 3-HP", "setting": "[2]; Delftia acidovorans, + 3-HP", "result": 4.03}, {"measurement": "Relative mRNA level mmsadh + 3-HP", "setting": "[2]; Ferrimonas balearica, + 3-HP", "result": 5.17}, {"measurement": "Relative mRNA level mmsadh + 3-HP", "setting": "[2]; Glaciecola nitratireducens, + 3-HP", "result": 4.81}, {"measurement": "Relative mRNA level mmsadh + 3-HP", "setting": "[2]; Gordonia bronchialis, + 3-HP", "result": 5.21}, {"measurement": "Relative mRNA level mmsadh + 3-HP", "setting": "[2]; Hahella chijuensis, + 3-HP", "result": 5.97}, {"measurement": "Relative mRNA level mmsadh + 3-HP", "setting": "[2]; Halomonas elongata, + 3-HP", "result": 4.34}, {"measurement": "Relative mRNA level mmsadh + 3-HP", "setting": "[2]; Hirschia litorea, + 3-HP", "result": 4.56}, {"measurement": "Relative mRNA level mmsadh + 3-HP", "setting": "[2]; Idiomarina sp., + 3-HP", "result": 5.43}, {"measurement": "Relative mRNA level mmsadh + 3-HP", "setting": "[2]; Janthinobacterium lividum, + 3-HP", "result": 5.01}, {"measurement": "Relative mRNA level mmsadh + 3-HP", "setting": "[2]; Kitasatospora setae, + 3-HP", "result": 5.25}, {"measurement": "Relative mRNA level mmsadh + 3-HP", "setting": "[2]; Kutzneria albida, + 3-HP", "result": 5.61}, {"measurement": "Relative mRNA level mmsadh + 3-HP", "setting": "[2]; Methylobacterium sp., + 3-HP", "result": 598}, {"measurement": "Relative mRNA level mmsadh + 3-HP", "setting": "[2]; Methylocystis sp., + 3-HP", "result": 4.91}, {"measurement": "Relative mRNA level mmsadh + 3-HP", "setting": "[2]; Novosphingobium sp., + 3-HP", "result": 6.04}, {"measurement": "Relative mRNA level mmsadh + 3-HP", "setting": "[2]; Oceanimonas smirnovii, + 3-HP", "result": 4.88}, {"measurement": "Relative mRNA level mmsadh + 3-HP", "setting": "[2]; Paracoccus sp., + 3-HP", "result": 4.96}, {"measurement": "Relative mRNA level mmsadh + 3-HP", "setting": "[2]; Parvibaculum lavamentivorans, + 3-HP", "result": 4.99}, {"measurement": "Relative mRNA level mmsadh + 3-HP", "setting": "[2]; Phenylobacterium kunshanensis, + 3-HP", "result": 5.02}, {"measurement": "Relative mRNA level mmsadh + 3-HP", "setting": "[2]; Photobacterium gaetbuleda, + 3-HP", "result": 5.06}, {"measurement": "Relative mRNA level mmsadh + 3-HP", "setting": "[2]; Polynucleobacter necessarius asymbioticus, + 3-HP", "result": 5.37}, {"measurement": "Relative mRNA level mmsadh + 3-HP", "setting": "[2]; Pseudoalteromonas carrgeenovora, + 3-HP", "result": 5.03}, {"measurement": "Relative mRNA level mmsadh + 3-HP", "setting": "[2]; Pseudogulbenkiania sp., + 3-HP", "result": 5.36}, {"measurement": "Relative mRNA level mmsadh + 3-HP", "setting": "[2]; Pseudomonas denitrificans ATCC13867, + 3-HP", "result": 5.43}, {"measurement": "Relative mRNA level mmsadh + 3-HP", "setting": "[2]; Pseudomonas fluorescens, + 3-HP", "result": 4.70}, {"measurement": "Relative mRNA level mmsadh + 3-HP", "setting": "[2]; Pseudomonas knackmussii, + 3-HP", "result": 5.96}, {"measurement": "Relative mRNA level mmsadh + 3-HP", "setting": "[2]; Pseudomonas protegens, + 3-HP", "result": 5.01}, {"measurement": "Relative mRNA level mmsadh + 3-HP", "setting": "[2]; Pseudoxanthomonas spadix, + 3-HP", "result": 4.96}, {"measurement": "Relative mRNA level mmsadh + 3-HP", "setting": "[2]; Psychrobacter phenylpyruvicus, + 3-HP", "result": 5.03}, {"measurement": "Relative mRNA level mmsadh + 3-HP", "setting": "[2]; Rhodomicrobium vannielli, + 3-HP", "result": 6.02}, {"measurement": "Relative mRNA level mmsadh + 3-HP", "setting": "[2]; Segniliparus rotundus, + 3-HP", "result": 4.32}, {"measurement": "Relative mRNA level mmsadh + 3-HP", "setting": "[2]; Shewanella oneidensis, + 3-HP", "result": 4.07}, {"measurement": "Relative mRNA level mmsadh + 3-HP", "setting": "[2]; Simiduia agarovorans, + 3-HP", "result": 4.87}, {"measurement": "Relative mRNA level mmsadh + 3-HP", "setting": "[2]; Sinorhizobium meliloti, + 3-HP", "result": 4.07}, {"measurement": "Relative mRNA level mmsadh + 3-HP", "setting": "[2]; Sphingobium chlorophenolicum, + 3-HP", "result": 4.86}, {"measurement": "Relative mRNA level mmsadh + 3-HP", "setting": "[2]; Sphingomonas wittichii, + 3-HP", "result": 6.42}, {"measurement": "Relative mRNA level mmsadh + 3-HP", "setting": "[2]; Sphingopyxis alaskensis, + 3-HP", "result": 6.94}, {"measurement": "Relative mRNA level mmsadh + 3-HP", "setting": "[2]; Stenotrophomonas maltophilia, + 3-HP", "result": 5.21}, {"measurement": "Relative mRNA level mmsadh + 3-HP", "setting": "[2]; Streptomyces nodosus, + 3-HP", "result": 5.14}, {"measurement": "Relative mRNA level mmsadh + 3-HP", "setting": "[2]; Tatlockia micdadei, + 3-HP", "result": 5.65}, {"measurement": "Relative mRNA level mmsadh + 3-HP", "setting": "[2]; Thalassospira xiamenensis, + 3-HP", "result": 6.10}, {"measurement": "Relative mRNA level mmsadh + 3-HP", "setting": "[2]; Variovorax paradoxus, + 3-HP", "result": 4.97}, {"measurement": "Relative mRNA level mmsadh + 3-HP", "setting": "[2]; Verminephrobacter eiseniae, + 3-HP", "result": 5.14}, {"measurement": "Relative mRNA level mmsadh + 3-HP", "setting": "[2]; Vibrio furnissii, + 3-HP", "result": 4.91}, {"measurement": "Relative mRNA level mmsadh + 3-HP", "setting": "[2]; Xanthobacter autotrophicus, + 3-HP", "result": 5.41}, {"measurement": "Relative mRNA level mmsadh + 3-HP", "setting": "[2]; Xanthomonas campestri, + 3-HP", "result": 5.09}, {"measurement": "increase of expression of mmsadh by 3-HP", "setting": "[2]; in the microorganisms (Table 7), 25 mM 3-HP in nutrient medium", "result": 16, "unit": "fold"}]}]}
